This note sets out measurements from patent publication US20240368154A1 (GENOSCO Inc., priority 2023, published 2024).

In test [1] the target is T1, Recombinant ROCK1 (amino acids 1-477) (Homo sapiens, UniProt Q13464).
T1 construct: Recombinant ROCK1 (amino acids 1-477)
Description: ROCK inhibition assay, LANCE Ultra TR-FRET kinase assay. Format: biochemical. The settings on record: at Km of ATP (table title); method: 1 mM ATP, 50 nM ULight-CREBtide substrate, 1 hour, room temperature. The method, then:
(§1) Kinase IC50 was determined through an in vitro assay based on LANCE Ultra TR-FRET (Time-Resolved Fluorescence Resonance Energy Transfer) homogeneous technologies method (Perkin Elmer). Recombinant ROCK1 (amino acids 1-477) and ROCK2 (amino acids 5-554) proteins were purchased from Carna Biosciences and SignalChem. Compound activities were measured by Envision and IC50s were calculated. The assays were performed in white LUMITRAC™ 200 96 well half-area microplates from Greiner Bio-One. The kinase reaction buffer consisted of 50 mM HEPES pH 7.5, 1 mM EGTA, 10 mM MgCl2, 2 mM DTT and 0.01% Tween-20. Kinases were incubated with 50 nM (ULight-CREBtide) substrate in the presence of 1 mM (ROCK1) or 1 mM (ROCK2) of ATP. The kinase reaction was carried out for 1 hour before addition of a stopping buffer to a final of 10 mM EDTA and 0.6 nM of LANCE Ultra Europium anti-phospho-CREB (Ser133) antibody (PerkinElmer TRF0200) in LANCE detection buffer. All assay incubations were performed at room temperature, and the microplates were sealed with polyester film during that time. The reaction was incubated for 1 hour, and the signal was read in Envision in TR-FRET mode (excitation at 320 nm and emission at 615/665 nm).
(§2) As used herein, a way to describe potency of inhibitory activity (nM) is a value of inhibitory activity at 50% (IC50).
For orientation: In TR-FRET formats the signal depends on donor and acceptor labels being close together.

Test [2] concerns the target T2, Recombinant ROCK2 (amino acids 5-554) (Homo sapiens, UniProt O75116).
T2 construct: ROCK2 (amino acids 5-554)
The description is as above. Format: biochemical. The settings on record: at Km of ATP (table title); method: 1 mM ATP, 50 nM ULight-CREBtide substrate, 1 hour, room temperature. The method, then: as §1, §2

T2 sequence (O75116 5-554): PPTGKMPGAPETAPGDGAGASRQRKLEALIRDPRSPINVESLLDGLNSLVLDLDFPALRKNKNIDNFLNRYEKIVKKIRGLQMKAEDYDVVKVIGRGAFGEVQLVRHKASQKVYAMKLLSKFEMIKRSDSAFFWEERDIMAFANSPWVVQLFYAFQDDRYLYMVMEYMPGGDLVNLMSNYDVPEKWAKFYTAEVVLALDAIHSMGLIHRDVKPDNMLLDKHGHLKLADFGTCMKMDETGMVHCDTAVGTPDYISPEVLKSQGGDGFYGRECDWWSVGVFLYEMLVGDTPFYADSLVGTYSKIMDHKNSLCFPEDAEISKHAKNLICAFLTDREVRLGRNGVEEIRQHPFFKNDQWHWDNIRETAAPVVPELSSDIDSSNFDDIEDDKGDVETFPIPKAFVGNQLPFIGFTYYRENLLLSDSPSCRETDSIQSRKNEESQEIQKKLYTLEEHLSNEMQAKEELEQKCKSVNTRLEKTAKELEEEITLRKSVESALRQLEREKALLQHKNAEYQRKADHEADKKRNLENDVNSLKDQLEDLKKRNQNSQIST
T1 sequence (Q13464 1-477): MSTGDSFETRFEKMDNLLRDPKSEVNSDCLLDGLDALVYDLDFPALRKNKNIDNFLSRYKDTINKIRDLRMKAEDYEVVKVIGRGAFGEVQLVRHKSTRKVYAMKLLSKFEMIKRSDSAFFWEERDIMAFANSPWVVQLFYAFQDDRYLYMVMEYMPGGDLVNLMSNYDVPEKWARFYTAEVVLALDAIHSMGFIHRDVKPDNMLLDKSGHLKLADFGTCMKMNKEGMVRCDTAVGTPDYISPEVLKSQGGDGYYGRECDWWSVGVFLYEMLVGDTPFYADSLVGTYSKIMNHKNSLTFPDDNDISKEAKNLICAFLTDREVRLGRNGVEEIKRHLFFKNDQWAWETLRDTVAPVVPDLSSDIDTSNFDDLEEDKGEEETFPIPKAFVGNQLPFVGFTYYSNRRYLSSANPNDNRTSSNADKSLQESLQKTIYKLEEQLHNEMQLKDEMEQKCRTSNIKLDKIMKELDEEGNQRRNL

One may read the IC50 as the concentration that gives 50% inhibition. As for `COc1n[nH]cc1-c1ccc2c(C(=O)C3COc4ccc(Cl)cc4C3)cn(CCO)c2c1` (racemic) [Compound 2-17], the 50% inhibitory concentration (IC50) in test [1] and in test [2] was 11 to 50 nM in each case.
Turning to `COc1n[nH]cc1-c1ccc2c(C(=O)C3COc4ccc(F)cc4C3)cn(CCO)c2c1` (racemic) [Compound 2-20], the IC50 in test [1] and in test [2] was 11 to 50 nM each time.
Consider `COc1n[nH]cc1-c1ccc2c(C(=O)[C@@H]3COc4ccc(Cl)cc4C3)cn(CCO)c2c1` (single isomer, unassigned) [Compound 2-18], for which the IC50 in test [1] is 11 to 50 nM; in test [2] it was less than 10 nM.
Taken in the same sequence, the figures for `COc1n[nH]cc1-c1ccc2c(C(=O)[C@H]3COc4ccc(Cl)cc4C3)cn(CCO)c2c1` (single isomer, unassigned) [Compound 2-19] were greater than 501 nM and 51 to 500 nM.
As for `COc1n[nH]cc1-c1ccc2c(C(=O)[C@@H]3COc4ccc(F)cc4C3)cn(CCO)c2c1` (single isomer, unassigned) [Compound 2-21], the IC50 in test [1] was 11 to 50 nM; in test [2], less than 10 nM.
Taken in the same sequence, the figures for `COc1n[nH]cc1-c1ccc2c(C(=O)[C@H]3COc4ccc(F)cc4C3)cn(CCO)c2c1` (single isomer, unassigned) [Compound 2-22] were greater than 501 nM and 51 to 500 nM.
Take `COc1n[nH]cc1-c1cc2c(cn1)c(C(=O)C1COc3ccc(Cl)cc3C1)cn2CCO` (stereo not shown) [Compound 1-1]: the IC50 in test [1] and in test [2] was greater than 501 nM throughout.
Regarding `O=C(c1cn(CCO)c2nc(-c3c[nH]nc3Cl)ccc12)C1COc2ccc(F)cc2C1` (stereo not shown) [Compound 1-3], the IC50 in test [1] was 11 to 50 nM; in test [2], less than 10 nM.
Taken in the same sequence, the figures for `O=C(c1cn(CCO)c2nc(-c3c[nH]nc3Cl)ccc12)C1COc2ccc(Cl)cc2C1` (stereo not shown) [Compound 1-4] were 11 to 50 nM and less than 10 nM.
Take `O=C(c1cn(CCO)c2cc(-c3c[nH]nc3Cl)cnc12)C1COc2ccc(Cl)cc2C1` (stereo not shown) [Compound 1-5]: the results for the IC50 in test [1] and in test [2] were 51 to 500 nM and 11 to 50 nM, respectively.
Taken in the same sequence, the figures for `CC(O)Cn1cc(C(=O)C2COc3ccc(Cl)cc3C2)c2cnc(-c3c[nH]nc3Cl)cc21` (stereo not shown) [Compound 1-6] were 11 to 50 nM and less than 10 nM.
For the compound `C[C@H](O)Cn1cc(C(=O)C2COc3ccc(Cl)cc3C2)c2cnc(-c3cn[nH]c3Cl)cc21` (stereo partly shown) [Compound 1-7], the IC50 was 11 to 50 nM in test [1] and less than 10 nM in test [2].
Take `C[C@@H](O)Cn1cc(C(=O)C2COc3ccc(Cl)cc3C2)c2cnc(-c3c[nH]nc3Cl)cc21` (stereo partly shown) [Compound 1-8]: the IC50 in test [1] was 11 to 50 nM; in test [2], less than 10 nM.
For the compound `C[C@H](O)Cn1cc(C(=O)[C@@H]2COc3ccc(Cl)cc3C2)c2cnc(-c3cn[nH]c3Cl)cc21` [Compound 1-9], the values for the IC50 in test [1] and in test [2] were 11 to 50 nM and less than 10 nM, respectively.
Consider `C[C@@H](O)Cn1cc(C(=O)[C@@H]2COc3ccc(Cl)cc3C2)c2cnc(-c3cn[nH]c3Cl)cc21` [Compound 1-10], for which the IC50 in test [1] was 11 to 50 nM; in test [2], less than 10 nM.
Taken in the same sequence, the figures for `C[C@H](O)Cn1cc(C(=O)[C@@H]2COc3ccc(Cl)cc3C2)c2cnc(-c3cn[nH]c3Cl)cc21` [Compound 1-11] were 11 to 50 nM and 11 to 50 nM.
With `C[C@H](O)Cn1cc(C(=O)[C@@H]2COc3ccc(Cl)cc3C2)c2cnc(-c3cn[nH]c3Cl)cc21` [Compound 1-12], the IC50 in test [1] was 11 to 50 nM; in test [2], less than 10 nM.
`O=C(c1cn(CCO)c2cc(-c3c[nH]nc3Cl)ncc12)C1COc2ccc(F)cc2C1` (stereo not shown) [Compound 1-13]: the half-inhibitory concentration (IC50) in test [1] is 11 to 50 nM; in test [2], less than 10 nM.
Taken in the same sequence, the figures for `CC(O)Cn1cc(C(=O)C2COc3ccc(F)cc3C2)c2cnc(-c3c[nH]nc3Cl)cc21` (stereo not shown) [Compound 1-14] were less than 10 nM and less than 10 nM.
On to `Cc1n[nH]cc1-c1ccc2c(C(=O)C3COc4ccc(F)cc4C3)cn(CCO)c2n1` (stereo not shown) [Compound 1-15], for which the IC50 in test [1] and in test [2] was less than 10 nM throughout.
